Test results: US8129425B2, “Small organic molecule regulators of cell proliferation” (Curis, Inc., priority 2000, dated 2012)

Experiments:
[1] = test system: hedgehog-responsive Gli-Luc reporter-construct; assay: Gli-Luc hedgehog pathway reporter assay in [10T1/2(s12)] cells; assay type: cell-based, murine; conditions: Table 1
Method: To measure the hedgehog agonist activity of compounds, we used [10T1/2(s12)] cells containing the hedgehog-responsive Gli-Luc reporter-construct. In each MTP (MicroTiter Plate; 96-well plate), 10,000-20,000 cells were plated per well, in full media (10% FBS). After about 24-48 hr, plates were switched to low-serum media (=0.5%. FBS). Subsequently, a test compound was added at 1-5 μM in the presence or absence of octyl-hedgehog (see below). After another 24 hr, the media from the MTPs was discarded and replaced with luciferase assay-mix, containing lysis-buffer with luciferase substrate. The plates were incubated at RT for about 15-30 min and read in a luminometer.
Plates were incubated for 48 hr before switching to low-serum. Compounds were screened at 1-2 μM in the presence of Hh protein (0.01 μg/ml; EC30=about 30% of max-induced activity).
Plates were incubated for 24 hr before switching to low-serum. Compounds were screened at 5 μM without adding Hh protein.
From Screen A, we identified hits identified in FIGS. 32 and 33. The 1,4-diaminocyclohexane subunit of the compounds of FIG. 32 which include this moiety have the two amino substituents disposed in a trans-relationship, e.g., both substituents equatorial on the cyclohexane subunit. These hits were confirmed in Screen B. The data shown in FIGS. 34a and 34b essentially involved dosing the two compounds in both assays (Gli-Luc & SV-Luc).
The data from the Gli-Luc assay is converted to percent activity where full activity with Hh protein is set at 100% (FIG. 35; Table 1). […] Furthermore, the compounds show a more striking induction in the presence of hedgehog (EC50=0.2-0.3 μM, ECmax=70-90% of max induced activity with Hh protein), indicating a synergy between the compounds and Hh protein, consistent with the compounds serving as agonists for the hedgehog pathway.

Gli-1 = assay: Quantitative RT-PCR (TaqMan) of Gli-1 transcript in C3H 10T1/2 cells; assay type: cell-based, Murine; conditions: compound concentration 8 μM
Method: (§1) The compounds of FIGS. 32 and 33 were tested for their ability to activate transcription of two well-studied targets of the Hedgehog pathway: the transcription factor Gli-1, and the putative Hedgehog receptor component Ptc-1.
(§2) Murine C3H 10T1/2 cells were seeded at approximately 200,000 cells per well in a 24-well plate in complete medium (10% FBS). After 24 hr, medium was removed and replaced with “starvation” medium (0.5% FBS) containing dilutions of compound or Hh protein. After 16-18 hr, total RNA was prepared using TriZol (Life Technologies, inc.).
(§3) One-microgram aliquots of total RNA were used to prepare random hexamer-primed cDNA with […] Reverse transcriptase (Life Technologies, Inc.).
(§4) To measure the relative levels of Gli-1 and Ptc-1 transcripts, TaqMan assays (PE Biosystems) were performed with an ABI Prism 7700 Sequence Detection System. As an internal control, GAPDH transcript levels were simultaneously measured in each reaction. Data were analyzed using Sequence Detector v 1.6.3 (Perkin Elmer).

Ptc-1 = assay: Quantitative RT-PCR (TaqMan) of Ptc-1 transcript in C3H 10T1/2 cells; assay type: cell-based, Murine; conditions: compound concentration 8 μM
Method: as §1, §2, §3, §4

[2] = test system: cerebellar neuron precursors; assay: Cerebellar neuron precursor proliferation (3H-thymidine incorporation); assay type: cell-based, rat
Method: In order to test the efficacy of Hedgehog signaling agonists, the ability of the agonists to stimulate the proliferation of cerebellar neuron precursors was determined. Cerebellar granule neuron precursors are known to respond to Hh protein by proliferating. To test the agonists, cerebellar neurons were dissected out of postnatal (one week) rat brains, and placed into primary cell culture. Treatment agents were added once, on the first day of culture (0 DIV). Cells were left in culture until 2 DIV, when 3H-thymidine was added for 5 hours; the amount of incorporation by the cells of this 3H-thymidine provides a measure of the level of proliferation of the cells. Cells were then lysed, and the incorporation of 3H-thymidine was determined. The positive control was Hh protein, at 1.0 μg/ml final concentration. Hh protein alone caused approximately a 20-fold increase in 3H-thymidine incorporation, consistent with the known ability of Shh to stimulate proliferation of these cells. Non-Hh-protein-stimulated cells, including cells treated with control vehicle (DMSO), had very low levels of proliferation. […] At 5.0 μM, the p-cyanophenyl compound B caused 10.2-fold induction of 3H-thymidine incorporation. […] At 1.0, 0.3, or 0.1 μM, D caused 16-, 17-, or 13-fold induction, respectively, of 3H thymidine incorporation into the cells.

[3] = test system: patched (ptc-lacZ β-galactosidase reporter); assay: Ptc-lacZ reporter mice assay (X-gal staining of tissues); assay type: in vivo; conditions: agonist 15 mg/kg/injection 4X/day + dipal-Shh 1 mg/kg/injection 2X/day, four days from first day after birth
Method: Mice with a β-galactosidase transgene (ptc-lacZ mice) under the regulatory control of the patched locus express the β-galactosidase protein in the same cells where the endogenous mouse patched gene is expressed. The β-galactosidase protein can thus be used as a faithful reporter of the expression of the endogenous patched gene.
Ptc-lacZ mice were divided into four treatment groups and were treated with the following compounds or combinations of compounds for four days, beginning on the first day after birth (dipal-Shh=dipalmitoylated Sonic hedgehog):
The vehicle for the agonist was 10% DMSO in PBS (pH 7.2). The agonist was injected from a 4.67 mM stock dissolved in the vehicle solution.
18 hours following the last injections, the mice were sacrificed and the following tissues were collected: skull, kidney, lung, scapula, skin and heart. All tissues were fixed in 0.2% glutaraldehyde, 5 mM EDTA (pH 8.0), 20 mM MgCl2, 100 mM Na2HPO4 for 30 minutes before staining in 1 mg/ml X-gal, 12.5 mM potassium ferrocyanide, 12.5 mM potassium ferricyanide, 2 mM MgCl2, 0.01% deoxycholate, 0.02% NP-40, and 100 mM Na2HPO4 for 30 hours. Tissues were judged for relative intensity and photographed.
FIG. 42: Ptc-lacZ mice were divided into two treatment groups and were treated with the following compounds for three days, beginning on the first day after birth:
The vehicle for the agonist was 10% DMSO in PBS (pH 7.2). The agonist was injected from a 1.0 mM stock dissolved in the vehicle solution.
Eighteen hours following the last injections, the mice were sacrificed and the forelimbs were collected and processed as described above.
In a third experiment, Ptc-lacZ mice were divided into five treatment groups and were treated with the following compounds for four days, beginning on the first day after birth:
The vehicle for the agonist was 10% DMSO in PBS (pH 7.2). The agonist was injected from stocks of 0.3, 0.1 and 0.03 mM dissolved in the vehicle solution.

ptc-1 (d11) lacZ lungs = assay: Lung branching assay (ptc-1 lacZ lung explants); assay type: cell-based, mouse; conditions: 5 μM, 48 hrs
Method: (§5) E12.5 old ptc-1 (d11) lacZ lungs were harvested and transgenic embryos identified by lacZ detection using tails. Explants were assembled on 1 μm polycarbonate filters (Costar) placed on top of plastic grids (histology embedding chamber) and placed in standard 12-well tissue culture plates filled with lung explant culture medium (DMEM based, additives optimized for the culture of mouse lungs) for 48 hrs, fixed in lacZ fixative, rinsed and stained for lacZ O/N at 37° C.

[4] = test system: ptc-1 (d11) lacZ kidney explants; assay: Kidney branching assay (ptc-1 lacZ kidney explants); assay type: cell-based, mouse; conditions: 5 μM, 48 hrs
Method: as §5, with “E13.5 old” for “E12.5 old”, “with kidney” for “with lung”

ptc-lacZ skin punches = assay: Skin explants from ptc-lacZ pups (X-Gal stain); assay type: cell-based, mouse; conditions: cultured 6 days
Method: Skin from ptc-lacZ E17.5 pups was excised with a 2 mm skin punch. Those skin punches were then cultured for 6 days in control media, or media including either agonist B or D or Hh protein, or media including both an agonist and Hh protein. The explants were then stained with X-Gal stain.

[5] = test system: HEPM cells with a Gli-Luc construct; assay: Gli-Luc reporter in human embryonic palatal mesenchyme (HEPM) cells; assay type: cell-based
Description: FIGS. 47A and B compare the activity of subject compounds O and R in mouse reporter cells (TM3 cells with a Gli-Luc reporter construct, as described above) and in human reporter cells (human embryonic palatal mesenchyme (HEPM) cells with a Gli-Luc construct).

[6] = test system: middle cerebral artery occlusion infarct; assay: Mouse MCAO model of stroke; assay type: in vivo
Method: In this animal model, a small suture is inserted into the common carotid artery and threaded directly into the circulatory system of the brain. The suture is placed such that it blocks blood flow though the middle cerebral artery (MCA occlusion), which is the primary source of blood to the forebrain. After a set period of time, here 90 min, the suture is removed and blood flow to the forebrain is restored (reperfusion). The temporary blockage of blood flow to the forebrain results in behavioral symptoms and brain pathology that mimic those seen in human stroke patients. In the brain, within 24 hr post-MCA occlusion an infarct is visible using a stain (TTC) that stains living tissue red and the infarcted area white. The infarct following a 90 min MCAO usually involves both cortical and subcortical brain regions. In this study, mice were treated for 3 days (1/day) prior to MCAO with either vehicle (0.5% methyl cellulose, 0.2% Tween-80/0.9% NaCl, n=12) or the Hh agonist X″ (20 mg/kg, po, n=11). Animals were then subjected to 90 min MCAO followed by reperfusion. Approximately 24 hr after the start of occlusion ([…] of reperfusion) mice were euthanized and the brain sectioned into 2 mm slabs. The brain slices were stained with TTC to show the infarcted area of the brain. The infarct area/total forebrain (% infarct) was analyzed by measured and statistically analyzed. Male mice (7-8 wks of age) were subjected to 90 min MCAO followed by reperfusion. Animals were then treated with either vehicle (n=11) or the Hh agonist X″ (20 mg/kg, po, n=12) at the onset of reperfusion (90 min post-occlusion). Twenty-four hours after the onset of MCAO mice were euthanized, the brain sectioned into 2 mm slabs and slices stained with TTC for infarct size analysis.

[7] = test system: nigrostriatal pathway (striatal DA and TH); assay: Mouse MPTP model of Parkinson's disease; assay type: in vivo; conditions: pretreatment 0.3, 1, 3, and 10 mg/kg po for 3 days before MPTP; seven days post-lesioning, vs vehicle
[8] = test system: neural precursor cells (SVZ and SG); assay: Neural precursor cell proliferation (BrdU) after oral administration in adult mouse; assay type: in vivo; conditions: 7 days BID, 10 mg/kg or 25 mg/kg
Method: To test whether oral administration of the Hh agonist would affect proliferation of precursor cells, mice were dosed daily (once or twice/day, po) with either vehicle or the Hh agonist X″ for 1-7 days. On the appropriate day, mice were injected with BrdU (ip) and 2 hours later euthanized, perfused with fixative and brains processed for BrdU immunohistochemistry. The number of BrdU-IR cells was counted in both the SVZ and subgranular zone of the hippocampal dentate gyrus (SG).
The data shown in FIGS. 57 and 58 are from a study in which mice were dosed orally for 7 days (BID) with either vehicle (n=4) or Hh agonist X″ (10 mg/kg, n=3 or 25 mg/kg, n=3). The day after the final dose, mice were injected with BrdU and 2 hrs. later brains were collected, processed, and analyzed as described above.

EC50 [1] [nM]	SMILES	induction of Gli-1 relative to that obtained with the optimal concentration of Hh protein (Gli-1)	induction of Ptc-1 relative to that obtained with the optimal concentration of Hh protein (Ptc-1)	induction of 3H-thymidine incorporation ([2]; 5.0 μM, absence of Hh protein) [fold]	stimulation of 3H-thymidine incorporation ([2]; absence of Hh protein treatment)	upregulation of hedgehog pathway (β-galactosidase staining) [3]	LacZ reporter gene expression in lung explants (ptc-1 (d11) lacZ lungs)	LacZ reporter gene expression in kidney explants [4]	X-Gal staining of skin explants (ptc-lacZ skin punches; agonist alone)	X-Gal staining of skin explants (ptc-lacZ skin punches; agonist and a low dose of Hh protein)	activation of Gli-Luc reporter cell line [5]	cortical and subcortical lesion size ([6]; post-MCAO treatment 20 mg/kg po at onset of reperfusion)	size of the infarct ([6]; post-MCAO treatment 20 mg/kg po at onset of reperfusion, p<0.05)	cortical infarct size ([6]; pre-MCAO treatment 20 mg/kg po 1/day for 3 days, p=0.052)	total infarct size ([6]; pre-MCAO treatment 20 mg/kg po 1/day for 3 days, p=0.057)	attenuation of damage to the nigrostriatal pathway (striatal DA and TH activity) [7] [%]	number of proliferating cells in the SG of the dentate gyrus [8]	number of BrdU labeled cells in the SVZ ([8]; p<0.05)
< 10000	COc1ccc(CN(C(=O)c2sc3ccccc3c2Cl)C2CCC(N)CC2)cc1-c1ccc(C#N)cc1 (centres unmarked) [B]	approximately 60%	approximately 60%	10.2	significantly stimulate 3H-thymidine incorporation	clearly capable of upregulating the hedgehog pathway in vivo	significantly increased reporter gene expression and expansion of the expression domain of the transgene	significantly increased reporter gene expression and expansion of the expression domain of the transgene	greater staining than culturing with a low dose of Hh protein alone	staining similar to that of a substantially higher dose of Hh protein								
< 1000	CNC1CCC(N(Cc2ccc(-c3cccnc3)o2)C(=O)c2sc3ccccc3c2Cl)CC1 (centres unmarked) [R]										activation of the reporter cell line							
< 5	CN[C@H]1CC[C@H](N(Cc2ccc(OC)c(-c3ccc(C#N)cc3)c2)C(=O)c2sc3c(F)ccc(F)c3c2Cl)CC1 [X′′]											dramatically reduced both cortical and subcortical lesion size	significantly decreased the size of the infarct	marked reduction in cortical infarct size	dramatically reduced	~260	increased the number of proliferating cells in the SG of the dentate gyrus	increased the number of BrdU labeled cells in the SVZ
